Measurements: US6495566B2, “Tetrahydroquinoline derivatives as glycine antagonists” (Smithkline Beecham Corporation, priority 1998, dated 2002)

Target: T1, strychnine insensitive glycine binding site associated with the NMDA receptor complex (Rattus norvegicus, UniProt P35439)
T1 construct: from tissue
Test: affinity for the strychnine insensitive glycine binding site (procedure of Kishimoto H. et al)
Settings: not given
Description: Thus the ability to bind at the strychnine insensitive glycine binding site was determined using the procedure of Kishimoto H et al., J Neurochem 1981, 37, 1015-1024.
The affinity of the compound of the invention for the strychnine insensitive glycine binding site was determined using procedure of Kishimoto H. et al […].

SMILES | Ki [nM]
O=C(O)C1CC(C2=CCCN(c3ccccc3)C2=O)c2ccc(Cl)cc2N1 (racemic) [Example 15, (±)-Sodium 7-chloro-4-(1-phenyl-Δ^3-5,6-dihydro-pyridin-2-one-3yl)-1,2,3,4-tetrahydroquinoline-2-carboxylate] | 18.6
CC(=O)Nc1ccc(N2CC=C(C3CC(C(=O)O)Nc4cc(Cl)ccc43)C2=O)cc1 (racemic) [Example 18, (+/−)-7-chloro-4-(1-(4-acetylamino)-phenyl-Δ^3-pyrrolin-2-one-3yl)-1,2,3,4-tetrahydroquinoline-2-carboxylic acid] | 16.6
O=C(O)C1CC(=C2NC(=O)N(c3ccccc3)C2=O)c2ccc(Cl)cc2N1 (racemic) [Example 24, (±)-7-chloro-4-(2,5-dioxo-1-phenyl-imidazolidin-4-ylidene)-1,2,3,4-tetrahydro-2-quinolinecarboxylic acid] | 15.8
CC(=O)Nc1ccc(N2CCC(=C3CC(C(=O)O)Nc4cc(Cl)ccc43)C2=O)cc1 (racemic) [Example 25, (+/−)-7-chloro-4-(2-oxo-1-(4-acetylamino)phenyl-pyrrolidin-3-ylidene)-1,2,3,4-tetrahydro-2-quinolinecarboxylic acid] | 70.8
O=C(O)C1CC(=C2CCN(c3ccccc3)C2=O)c2c(Cl)cc(Cl)cc2N1 (stereo not shown) [Example 30, Sodium 5,7-dichloro-4-(2-oxo-(1-phenyl)pyrrolidin-3-ylidene)-1,2,3,4-tetrahydro-2-quinoline carboxylate(enatiomer A)] | 20

Second part, the compound after the results:

Ki [nM] | SMILES
12.6 | O=C(O)C1CC(C2=CCN(c3cccnc3)C2=O)c2ccc(Cl)cc2N1 (racemic) [Example 14, (±)-Sodium 7-chloro-4-(1-(3-pyridin)-Δ^3-pyrrolin-2-one-3yl)-1,2,3,4-tetrahydroquinoline-2-carboxylate]
15.8 | O=C(O)C1CC(C2=CCN(c3ccccc3)C2=O)c2c(Cl)cc(Cl)cc2N1 (racemic) [Example 16, (±)-Sodium 5,7-dichloro-4-(1-phenyl-Δ^3-pyrrolin-2-one-3yl)-1,2,3,4-tetrahydroquinoline-2-carboxylate]
1.26 | CS(=O)(=O)Nc1ccc(N2CC=C(C3CC(C(=O)O)Nc4cc(Cl)ccc43)C2=O)cc1 (racemic) [Example 19, (+/−)7-chloro-4-(1-(4-methanesulfonylamino)-phenyl-1-Δ^3-pyrrolin-2-one-3yl)-1,2,3,4-tetrahydroquinoline-2-carboxylic acid]
12.6 | O=C(O)C1CC(=C2CCN(c3cccnc3)C2=O)c2ccc(Cl)cc2N1 (racemic) [Example 22, (±)-Sodium 7-chloro-4-(2-oxo-1-(pyridn-3yl)-pyrrolidin-3-ylidene)-1,2,3,4-tetrahydro-2-quinolinecarboxylate]
2 | O=C(O)C1CC(C2=CCN(c3ccccc3)C2=O)c2c(Cl)cc(Cl)cc2N1 (stereo not shown) [Example 29, Sodium, 5,7-Dichloro-4-(2-oxo-1-phenyl-Δ^3-pyrrolin-2-one-3-yl)-1,2,3,4-tetrahydro-quinoline-2-carboxylic acid; (enatiomer A)]

Tested on: formalin-induced pain
Test: formalin test in mouse (licking time of injected paw)
Type: in vivo
Settings: administered orally 1 hour before formalin injection
Description: The ability of compounds of the invention to inhibit pain in mouse has been assessed in the formalin test as described by Dubuisson and Dennis (Pain, 1977, 4:161-174). In this test 20 μl of 1% formalin was injected into the plantar surface of the mouse left hind paw. The amount of time, in seconds, the animals spent licking the injected paw for the first 5 minutes (early phase) and then from 20 to 60 minutes (late phase) after formalin was used as measurement of the intensity of pain. The compounds of the invention were administered orally 1 hour before formalin injection.

SMILES | ED50 (dose required to reduce the licking time by 50%) [mg/kg po]
O=C([O-])C1CC(=C2CCN(c3ccccc3)C2=O)c2ccc(Cl)cc2N1.[Na+] (single isomer, unassigned; (-)) [Example 21, (−)-Sodium 7-chloro-4-(2-oxo-1-phenyl-3-pyrrolidinylidene)-1,2,3,4-tetrahydro-2-quinolinecarboxylate] | 0.14

Tested on: not given
Test: not given
Settings: not given

melting point [°C] | SMILES
> 130 | O=C(O)C1CC(=C2CCCN(c3ccccc3)C2=O)c2ccc(Cl)cc2N1 (racemic) [Example 23, (±)-7-chloro-4-(2-oxo-1-phenyl-3-piperidinylidene)-1,2,3,4-tetrahydro-2-quinolinecarboxylic acid]
